According to patent US5216183A, “Cyclopentanone/cyclopentenone derivative” (Teijin Limited, priority 1988, dated 1993):

Tested on: human osteoblasts (KK-3, 18PDL)
Experiment: Measurement of bone formation activity (KK-3, 14 days)
Type: cell-based
Experimental: Human osteoblasts (KK-3, 18PDL) were cultured in an α-MEM containing 10% fetal calf serum. After the growth became stationary, the compound was added in a given concentration in the presence of 2 mM α-glycerophosphate and treated for 14 days. The cell phase was washed with physiological saline, and the alkaline phosphatase activity (ALP) was measured through the absorption of OD415. Then, calcium (Ca) and phosphorus (P) were extracted with a 2N hydrochloric acid and quantitatively determined.

[1] = Table 26, 10^-6 M, control 0.27 ± 0.04
[2] = Table 26, 10^-6 M, control 30.68 ± 3.33
[3] = Table 26, 10^-6 M, control 45.61 ± 6.19
[4] = Table 26, 10^-7 M, control 0.27 ± 0.04
[5] = Table 26, 10^-7 M, control 45.61 ± 6.19
[6] = Table 27, 10^-7 M, control 0.58 ± 0.03
[7] = Table 27, 10^-7 M, control 11.83 ± 3.18
[8] = Table 30, 10^-6 M, control 0.60 ± 0.02
[9] = Table 30, 10^-6 M, control 3.00 ± 1.73
[10] = Table 30, 10^-7 M, control 0.60 ± 0.02
[11] = Table 30, 10^-7 M, control 3.00 ± 1.73
[12] = Table 30, 10^-7 M, control 5.33 ± 1.15
[13] = Table 31, 10^-7 M, control 0.18 ± 0.06
[14] = Table 31, 10^-7 M, control 1.88 ± 0.31
[15] = Table 31, 10^-7 M, control 4.73 ± 0.37
[16] = Table 31, 10^-8 M, control 0.18 ± 0.06
[17] = Table 31, 10^-8 M, control 1.88 ± 0.31
[18] = Table 32, 10^-5 M, control 0.80 ± 0.01
[19] = Table 32, 10^-5 M, control 23.00 ± 1.00
[20] = Table 32, 10^-6 M, control 0.80 ± 0.01
[21] = Table 32, 10^-6 M, control 15.67 ± 0.58
[22] = Table 32, 10^-6 M, control 23.00 ± 1.00
[23] = Table 33, 10^-5 M, control 0.80 ± 0.02
[24] = Table 33, 10^-5 M, control 15.67 ± 1.53
[25] = Table 33, 10^-5 M, control 22.67 ± 3.06
[26] = Table 33, 10^-6 M, control 0.80 ± 0.02
[27] = Table 33, 10^-6 M, control 22.67 ± 3.06
[28] = Table 35, 10^-5 M, control 1.23 ± 0.02
[29] = Table 35, 10^-5 M, control 3.00 ± 1.00
[30] = Table 35, 10^-6 M, control 1.23 ± 0.02
[31] = Table 35, 10^-6 M, control 3.00 ± 1.00
[32] = Table 35, 10^-6 M, control 5.67 ± 0.58
[33] = Table 36, 10^-6 M, control 1.17 ± 0.03
[34] = Table 36, 10^-6 M, control 2.33 ± 1.15
[35] = Table 36, 10^-7 M, control 1.17 ± 0.03
[36] = Table 36, 10^-7 M, control 2.33 ± 1.15
[37] = Table 36, 10^-7 M, control 5.00 ± 0.00
[38] = Table 28, 10^-6 M, control 4.33 ± 0.58

## O=C1C(Sc2ccccn2)=CC(O)(CCCCOc2ccccc2)C1=CC=CC(O)CCCO (stereo not shown)
[1]
  ALP: 0.36 ± 0.12 OD413 /dish
[2]
  P: 42.28 ± 6.99 μg/dish
[3]
  Ca: 70.42 ± 7.82 μg/dish
[4]
  ALP: 0.29 ± 0.04 OD413 /dish
[5]
  Ca: 56.85 μg/dish

## O=C1C(SC2CCCCC2)=CC(O)(CCCCOc2ccccc2)C1C(O)C=CC(O)CCCO (stereo not shown)
[6]
  ALP: 0.55 ± 0.04 OD413 /dish
Table 27, 10^-7 M, control 11.50 ± 1.73
  P: 11.67 ± 3.18 μg/dish
[7]
  Ca: 13.83 ± 1.15 μg/dish
Table 27, 10^-8 M, control 0.58 ± 0.03
  ALP: 0.36 OD413 /dish
Table 27, 10^-8 M, control 11.83 ± 3.18
  Ca: 20.17 μg/dish

## COC(=O)CCCCCC=C1C(=O)C(Sc2nccn2C)=CC1(O)CCCCOc1ccccc1 (stereo not shown)
[8]
  ALP: 0.60 OD415 /dish
[9]
  Ca: 43.67 μg/dish
[10]
  ALP: 0.63 ± 0.02 OD415 /dish
[11]
  Ca: 3.67 ± 1.15 μg/dish
[12]
  P: 6.33 ± 0.58 μg/dish

## Cn1ccnc1SC1=CC(O)(CCCCOc2ccccc2)C(=CC=CC2(O)CCCCC2)C1=O (stereo not shown)
[8]
  ALP: 0.11 OD415 /dish
[9]
  Ca: 85.67 μg/dish
[10]
  ALP: 0.58 ± 0.03 OD415 /dish
[11]
  Ca: 14.00 ± 1.00 μg/dish
[12]
  P: 12.67 ± 1.15 μg/dish

## Cn1ccnc1SC1=CC(O)(CCCCOc2ccccc2)C(=Cc2ccc(CC(CO)CO)cc2)C1=O (stereo not shown)
[8]
  ALP: 0.08 OD415 /dish
[9]
  Ca: 116.00 μg/dish
[10]
  ALP: 0.66 ± 0.03 OD415 /dish
[11]
  Ca: 11.00 ± 1.73 μg/dish
[12]
  P: 11.67 ± 1.15 μg/dish

## CC(C)(C)C1=C(Sc2ccccc2)C(=O)C(=CC=CC(O)CCCO)C1O (stereo not shown)
[13]
  ALP: 0.16 ± 0.04 OD415 /dish
[14]
  Ca: 2.43 ± 0.19 μg/dish
[15]
  P: 4.68 ± 0.27 μg/dish
[16]
  ALP: 0.15 OD415 /dish
[17]
  Ca: 4.07 μg/dish

## CSC1=CC(O)(CCCCOc2ccccc2)C(CC=CC(O)CCCO)C1=O (stereo not shown)
[18]
  ALP: 0.56 OD415 /dish
[19]
  Ca: 30.67 ± 2.31 μg/dish
[20]
  ALP: 0.84 ± 0.03 OD415 /dish
[21]
  P: 9.33 ± 1.15 μg/dish
[22]
  Ca: 10.67 ± 1.53 μg/dish

## COC(=O)CCCC#CCC1C(=O)C(SC)=CC1(O)CCCCOc1ccccc1 (stereo not shown)
[23]
  ALP: 0.98 ± 0.08 OD415 /dish
[24]
  P: 35.33 ± 0.58 μg/dish
[25]
  Ca: 58.67 ± 1.53 μg/dish
[26]
  ALP: 0.90 OD415 /dish
[27]
  Ca: 24.33 ± 1.53 μg/dish

## CSC1=CC(CCCCOc2ccccc2)C(=C/C=C/C(O)CCCO)C1=O (stereo not shown)
[23]
  ALP: 0.79 ± 0.02 OD415 /dish
[24]
  P: 31.00 ± 1.00 μg/dish
[25]
  Ca: 50.67 ± 1.15 μg/dish
[26]
  ALP: 0.76 OD415 /dish
[27]
  Ca: 19.67 ± 2.52 μg/dish

## O=C1C(=CCCC2CCCCC2)CC=C1Sc1ccccc1
Table 34, 10^-7 M, control 0.35 ± 0.02
  ALP: 0.36 ± 0.04 OD415 /dish
Table 34, 10^-7 M, control 12.41 ± 1.50
  P: 12.33 ± 2.80 μg/dish
Table 34, 10^-7 M, control 17.81 ± 0.50
  Ca: 23.94 ± 5.80 μg/dish
Table 34, 10^-8 M, control 0.35 ± 0.02
  ALP: 0.30 OD415 /dish
Table 34, 10^-8 M, control 12.41 ± 1.50
  P: 8.98 ± 1.89 μg/dish
Table 34, 10^-8 M, control 17.81 ± 0.50
  Ca: 18.13 ± 2.6 μg/dish

## CC(=O)OC(/C=C/C(O)CCCO)C1C(=O)C(Sc2nccn2C)=CC1(O)CCCCOc1ccccc1 (stereo not shown)
[28]
  ALP: 0.15 OD415 /dish
[29]
  Ca: 137.00 μg/dish
[30]
  ALP: 1.28 ± 0.03 OD415 /dish
[31]
  Ca: 51.67 ± 8.08 μg/dish
[32]
  P: 35.33 ± 5.03 μg/dish

## CSC1=CC(O)(CCCCOc2ccccc2)C(C(/C=C/C(O)CCCO)OC(C)=O)C1=O (stereo not shown)
[28]
  ALP: 0.17 OD415 /dish
[29]
  Ca: 104.00 μg/dish
[30]
  ALP: 1.10 ± 0.06 OD415 /dish
[31]
  Ca: 24.08 ± 2.00 μg/dish
[32]
  P: 18.00 ± 1.00 μg/dish

## CC(C)OC(=O)OC(/C=C/C(O)CCCO)C1C(=O)C(Sc2nccn2C)=CC1(O)CCCCOc1ccccc1 (stereo not shown)
[28]
  ALP: 0.165 OD415 /dish
[29]
  Ca: 136.67 μg/dish
[30]
  ALP: 1.24 ± 0.03 OD415 /dish
[31]
  Ca: 54.67 ± 2.08 μg/dish
[32]
  P: 35.00 ± 2.00 μg/dish

## CSC1=CC(O)(CCCCOc2ccccc2)C(C(/C=C/C(O)CCCO)OC(=O)OC(C)C)C1=O (stereo not shown)
[28]
  ALP: 0.18 OD415 /dish
[29]
  Ca: 109.67 μg/dish
[30]
  ALP: 1.22 ± 0.06 OD415 /dish
[31]
  Ca: 25.00 ± 1.73 μg/dish
[32]
  P: 19.67 ± 1.15 μg/dish

## Cn1ccnc1SC1=CC(O)(CCCCOc2ccccc2)C(=CC=C2CCCCC2)C1=O (stereo not shown)
[33]
  ALP: 1.09 OD415 /dish
[34]
  Ca: 15.33 μg/dish
[35]
  ALP: 1.19 ± 0.06 OD415 /dish
[36]
  Ca: 3.33 ± 0.58 μg/dish
[37]
  P: 5.67 ± 0.58 μg/dish

## Cn1ccnc1SC1=CC(O)(CCCCOc2ccccc2)C(=C/C=C/CO)C1=O (stereo not shown)
[33]
  ALP: 1.18 OD415 /dish
[34]
  Ca: 37.33 μg/dish
[35]
  ALP: 1.20 ± 0.03 OD415 /dish
[36]
  Ca: 2.33 ± 0.58 μg/dish
[37]
  P: 4.33 ± 0.58 μg/dish

## Cn1ccnc1SC1=CC(O)(CCCCOc2ccccc2)C(C(O)C2=C(C(C)(C)O)CCCC2)C1=O (stereo not shown)
Table 36, 10^-5 M, control 1.17 ± 0.03
  ALP: 0.87 OD415 /dish
Table 36, 10^-5 M, control 2.33 ± 1.15
  Ca: 50.67 μg/dish
[33]
  ALP: 1.20 ± 0.05 OD415 /dish
[34]
  Ca: 2.00 ± 0.00 μg/dish
Table 36, 10^-6 M, control 5.00 ± 0.00
  P: 5.00 ± 1.00 μg/dish

## CCOc1ccc2nc(SC3=CC(O)(CCCCOc4ccccc4)C(=CC=CC(O)CCCO)C3=O)sc2c1 (stereo not shown) [drawing 1068]
[1]
  ALP: 0.10 ± 0.01 OD413 /dish
[2]
  P: 41.45 ± 7.21 μg/dish
[3]
  Ca: 81.88 ± 8.47 μg/dish
[4]
  ALP: 0.34 ± 0.06 OD413 /dish
[5]
  Ca: 61.19 μg/dish

## Cn1ccnc1SC1=CC(O)(CCCCOc2ccccc2)C(=CC=CC(O)CCCO)C1=O (stereo not shown) [drawing 1069]
[1]
  ALP: 0.48 ± 0.04 OD413 /dish
[2]
  P: 46.43 ± 1.41 μg/dish
[3]
  Ca: 79.83 ± 0.58 μg/dish
[4]
  ALP: 0.33 OD413 /dish
[5]
  Ca: 61.95 μg/dish

## O=C1C(SC2CCCCC2)=CC(O)(CCCCOc2ccccc2)C1=CC=CC(O)CCCO (stereo not shown) [drawing 1070]
Table 27, 10^-6 M, control 0.58 ± 0.03
  ALP: 0.64 ± 0.05 OD413 /dish
Table 27, 10^-6 M, control 11.50 ± 1.73
  P: 24.83 ± 2.47 μg/dish
Table 27, 10^-6 M, control 11.83 ± 3.18
  Ca: 33.50 ± 3.91 μg/dish
[6]
  ALP: 0.53 OD413 /dish
[7]
  Ca: 19.67 μg/dish

## Cn1ccnc1SC1=CC(O)(CCCCOc2ccccc2)C(C(O)C=CC(O)CCCO)C1=O (stereo not shown) [drawing 1072]
Table 28, 10^-6 M, control 0.72 ± 0.01
  ALP: 0.76 ± 0.08 OD413 /dish
[38]
  Ca: 26.17 ± 3.25 μg/dish
  P: 19.33 ± 2.02 μg/dish
Table 28, 10^-7 M, control 0.72 ± 0.01
  ALP: 0.81 OD413 /dish
Table 28, 10^-7 M, control 4.33 ± 0.58
  Ca: 1.17 μg/dish

## COC(=O)COc1cccc(C=C2C(=O)C(SC)=CC2(O)CCCCOc2ccccc2)c1 (stereo not shown) [drawing 1073]
Table 29, 10^-7 M, control 0.77 ± 0.20
  ALP: 0.52 ± 0.10 OD413 /dish
Table 29, 10^-7 M, control 18.64 ± 3.16
  P: 21.72 ± 8.88 μg/dish
Table 29, 10^-7 M, control 31.26 ± 3.00
  Ca: 36.18 ± 14.29 μg/dish
Table 29, 10^-8 M, control 0.77 ± 0.20
  ALP: 0.64 OD413 /dish
Table 29, 10^-8 M, control 31.26 ± 3.00
  Ca: 49.16 ± 26.04 μg/dish

## CCCCC1=C(Sc2nccn2C)C(=O)C(=CC=CC(O)CCCO)C1(O)CCCCOc1ccccc1 (stereo not shown) [drawing 1079]
[13]
  ALP: 0.12 ± 0.01 OD415 /dish
[14]
  Ca: 4.85 ± 0.84 μg/dish
[15]
  P: 6.68 ± 0.34 μg/dish
[16]
  ALP: 0.17 OD415 /dish
[17]
  Ca: 2.46 μg/dish

## CSC1=CC(O)C(=CC=CC(O)CCCO)C1=O (stereo not shown) [drawing 1082]
[18]
  ALP: 0.53 OD415 /dish
[19]
  Ca: 57.33 ± 2.08 μg/dish
[20]
  ALP: 0.81 ± 0.06 OD415 /dish
[21]
  P: 16.33 ± 2.08 μg/dish
[22]
  Ca: 23.00 ± 3.46 μg/dish
